Like-named read-outs stand apart in the source and are kept apart here.
How the values were obtained:
U937 cells = experiment: MTT assay, cytotoxicity against U937 cells; type: cell-based, human; conditions: MTT, 37 °C, treated for 24 h, read-out: EC50 against U937
Procedure: Second, we conducted the quantitative evaluation of the cytotoxicity of 1, 2, and 3 against various cancer cell lines by an MTT (3-(4,5-dimethylthiazol-2-yl)-2,5-diphenyltetrazolium bromide) assay. Jurkat, MOLT-4 (these two cell lines are human T-lymphocyte leukemia cells), and U937 (human lymphoma) cells (1.5 × 10^4 cells/well) were incubated in RPMI 1640 medium containing 10% FBS (fetal bovine serum) containing 1, 2, and 3 (0–25 μM) at 37 °C for 24 h, and then treated with the MTT reagent. A549 (human alveolar adenocarcinoma) and IMR-90 (normal human fetal lung fibroblast as model of normal cells) cells (1.5 × 10^4 cells/well) were incubated in DMEM (low glucose) with 10% FBS containing 1, 2, and 3 (0–25 μM), HeLa S3 (human epithelial carcinoma cells) cells (1.5 × 10^4 cells/well) were incubated in MEM with 10% FBS containing these ligands (0–25 μM) for 24 h at 37 °C and then treated with the MTT reagent.
• (a) Cytotoxic study. Jurkat cells, MOLT-4 cells, and U937 cells (1.5 × 10^5 cells/mL per one well) were incubated in 10% FBS RPMI 1640 medium containing 1 (0–25 μM), 2 (0–25 μM) , 3, cisplatin (0–100 μM), and actinomycin D (0–10 μM) under 5% CO2 at 37 °C for 24 h on 96 well plates (Watson), 0.5% MTT (3-(4,5-dimethyl-2-thiazolyl)-2,5-diphenyl-2H-tetrazolium bromide) reagent in PBS (10 μL) was then added to the cells. After incubation at 37 °C for 4 h, a formazan lysis solution (10% SDS in 0.01 N HCl) (100 μL) was added and the resulting solution was incubated overnight under the same conditions, followed by the measurement of absorbance at 570 nm with a microplate reader (BIO-RAD).

Jurkat cells = experiment: Annexin V-FITC/PI staining by flow cytometry; type: cell-based, human; conditions: 24 h
Procedure: The cell death in Jurkat cells induced by 1 and cisplatin (after the treatment for 24 h) was characterized by the flow cytometry of Jurkat cells after co-staining with Annexin V-FITC and PI to characterize the early and late apoptosis or necrosis. Each of the four areas in Figure 6 indicates Annexin V-FITC negative and PI signal positive (= necrotic cells) (top left square), Annexin V-FITC positive and PI positive (= late apoptosis) (top right square), Annexin V-FITC negative and PI negative (= alive cells) (bottom left square); and Annexin V-FITC positive and PI signal negative (= early apoptosis cells) (bottom right square), respectively. As summarized in Figure 7, the percentage of late apoptotic cells of the cells that had been treated with cisplatin increased from 15 to 75% at [cisplatin] = 12.5 to 50 μM and the percentage of late apoptotic cells of cells treated with 1 increased from 14 to 65% at = […] to 5 μM.
Figure 6 Jurkat cells were treated with no ligand (a) and with 1 (0.5–5 μM) (b,c) and cisplatin (12.5–50 μM) (d,e) and for 24 h, stained with Annexin V-FITC/PI, and observed by flow cytometry. The four areas in each graph show necrotic cells in the top left square (Annexin V-FITC^-/PI^+), late apoptotic cells in the top right square (Annexin V-FITC^+/PI^+), alive cells in the bottom left square (Annexin V-FITC^–/PI^–), and apoptotic cells in the bottom right square (Annexin V-FITC^+/PI^–). TEXT PRINTED IN THE PICTURE: (b) 1: 1.14 (0.5 μM); 14.7 (0.5 μM); 83.5 (0.5 μM); 0.7 (0.5 μM) | (c) 1: 0.82 (5 μM); 59 (5 μM); 38.5 (5 μM); 1.6 (5 μM) | (d) cisplatin: 4.19 (12.5 μM); 24.3 (12.5 μM); 71.3 (12.5 μM); 0.23 (12.5 μM) | (e) cisplatin: 0.94 (50 μM); 66.2 (50 μM); 32.6 (50 μM); 0.24 (50 μM) DOUBTS OF THE COPYIST ABOUT THIS PICTURE: The quadrant numbers are printed without a measure or unit. In each panel they are given in the order top left, top right, bottom left, bottom right. / Panel (a) Control (1.26, 3.82, 94.9, 0.072) is left out because it is not a substance.
Jurkat cells (1.0 × 10^5 cells/tube) were incubated in 10% FBS RPMI 1640 medium containing solution of 1 ([…]) and cisplatin (0–50 μM) for 24 h. The cells were then centrifuged at 3000 rpm for 5 min at 4 °C, then the supernatant was discarded, and the pellet was resuspended in 200 μL of PBS. The cells were then centrifuged at 3000 rpm for 5 min at 4 °C, then the supernatant was discarded, and the pellet was resuspended in 195 μL of 1 × binding buffer. A 195 μL aliquot of the sample solution was incubated with 5 μL of FITC-conjugated annexin V (Invitrogen) for 15 min at room temperature in the dark. […] 200 μL of the sample solution transferred to culture tube were analyzed by flow cytometry (Becton Dickinson) using Cell Quest Research Software (Becton Dickinson).

N.N.[Cl][Pt][Cl] [cisplatin, reference compound]
EC50 (U937 cells): 24 ± 0.9 µM | percentage of late apoptotic cells (Jurkat cells; 12.5 μM (Figure 7, n = 3)): 15% | percentage of late apoptotic cells (Jurkat cells; 50 μM (Figure 7, n = 3)): 75%

c1ccc(-c2ccc(OCc3cc(COc4ccc(-c5ccccn5)nc4)cc(COc4ccc(-c5ccccn5)nc4)c3)cn2)nc1 [compound 1, 1,3,5-Tris(([2,2′-Bipyridin]-5-yloxy)methyl)benzene]
EC50 (U937 cells; Homo sapiens, U-937): 0.32 ± 0.22 µM | percentage of late apoptotic cells (Jurkat cells; 0.25 μM (Figure 7, n = 3)): 14% | percentage of late apoptotic cells (Jurkat cells; 5 μM (Figure 7, n = 3)): 65%

Source: publication PMC10498496, “Design and Synthesis of Poly(2,2′-Bipyridyl) Ligands for Induction of Cell Death in Cancer Cells: Control of Anticancer Activity by Complexation/Decomplexation with Biorelevant Metal Cations” (Inorganic Chemistry, 2023)
